Assay type in all cases: cell-based
Experiment [1] concerns K562/ADR doxorubicin-resistant CML cell line. The experiment is described as follows: PDT using 5-ALA, cell survival rate by Cell Counting Kit-8, K562/ADR. On the procedure: (§1) LAMA84-r was used as imatinib-resistant CML cell line and the original cell line LAMA84-s (imatinib-sensitive) was used as a comparative control. In addition, K562/ADR was used as doxorubicin-resistant CML cell line and the original cell line K562 (doxorubicin-sensitive) was used as a comparative control. These cells were passaged and cultured. For the experiment, cells were prepared to a density of 1×10^6 cells/ml at the beginning of the experiment.
(§2) To the cell suspension, 5-ALA was added at concentrations of 0, 0.0625, 0.125, 0.25, and 0.5 mM and loaded for 4 hours. The cell after 5-ALA loading was washed and irradiated with light (0, 10, 30, and 100 J/cm^2) at a central wavelength of 630 nm, and cell survival rate (%) was calculated by Cell Counting Kit-8.

A further experiment concerns Hut102 ATL cell line. The experiment is described as follows: PDT using 5-ALA, cell survival rate by Cell Counting Kit-8, Hut102. The following applies: for pEC50: HuT-102, light or radiation study, 4 h, Hut102, 5-ALA loaded 4 hours.
Source text: (§3) ATN-1, C8166, TL-Om1, Hut102, and MT-1 were used as ATL cell lines. Among them, lenalidomide-sensitive cell line was Hut102 and lenalidomide-resistant cell line was C8166. The sensitivity of ATN-1, TL-Om1, and MT-1 to lenalidomide was unknown. Meanwhile, tretinoin-sensitive cell line was C8166 and tretinoin-resistant cell line was Hut102. The sensitivity of ATN-1, TL-Om1, and MT-1 to tretinoin was unknown. In addition, mogamulizumab-sensitive cell lines were ATN-1, TL-Om1, and MT-1, and mogamulizumab-resistant cell line was Hut102. The sensitivity of C8166 to mogamulizumab was unknown. These cells were passaged and cultured. For the experiment, cells were prepared to a density of 1×10^6 cells/ml at the beginning of the experiment.
as §2

In a further experiment the test system is C8166 ATL cell line. The experiment in a line: PDT using 5-ALA, cell survival rate by Cell Counting Kit-8, C8166. The note with it: for pEC50: Homo sapiens, C8166, light or radiation study, 4 h, C8166, 5-ALA loaded 4 hours.
Source text: as §3, §2

The next experiment concerns TL-Om1 ATL cell line. The experiment in a line: PDT using 5-ALA, cell survival rate by Cell Counting Kit-8, TL-Om1. The note with it: light or radiation study, 4 h, 5-ALA loaded 4 hours.
Source text: as §3, §2

In a further experiment the test system is ATN-1 ATL cell line. The experiment is described as follows: PDT using 5-ALA, cell survival rate by Cell Counting Kit-8, ATN-1. The following applies: Homo sapiens, ATN-1, light or radiation study, 4 h, 5-ALA loaded 4 hours.
Source text: as §3, §2
For orientation: Tetrazolium dyes change colour on reduction, which living cells bring about.

The subject of a further experiment is MT-1 ATL cell line. The experiment is described as follows: PDT using 5-ALA, cell survival rate by Cell Counting Kit-8, MT-1. The note with it: light or radiation study, 4 h, 5-ALA loaded 4 hours.
Source text: as §3, §2

The test system of experiment [2] is LAMA84-r imatinib-resistant CML cell line. The experiment is described as follows: PDT using 5-ALA, cell survival rate by Cell Counting Kit-8, LAMA84-r. On the procedure: as §1, §2

pEC50: −log10 of the molar value.

With `NCC(=O)CCC(=O)O` [5-ALA, 5-aminolevulinic acid], the “cell killing by PDT using 5-ALA” value in experiment [1] (K562/ADR, doxorubicin-resistant cell line, FIG. 2) was “killed”; with Hut102 ATL cell line (HuT102, mogamulizumab-resistant and tretinoin-resistant cell line, FIG. 1), “killed”; in the experiment with C8166 ATL cell line (C8166, lenalidomide-resistant cell line, FIG. 1) it was “killed”; in experiment [2] (LAMA84-r, imatinib-resistant cell line, FIG. 2) it was “killed”. For the same molecule, the “cell killing effect of PDT using 5-ALA relative to sensitive cell line” value (in experiment [1] (doxorubicin-resistant K562/ADR versus K562); in the experiment on C8166 ATL cell line (lenalidomide-resistant C8166 versus lenalidomide-sensitive Hut102); in the experiment with C8166 ATL cell line (tretinoin-resistant cell line C8166 versus tretinoin-sensitive cell line Hut102 (so in the source)); in experiment [2] (imatinib-resistant LAMA84-r versus LAMA84-s)) was “comparable” in each case. The negative logarithm of the EC50 (pEC50) (in general, −log10 of the EC50, conventionally taken in molar units) with Hut102 ATL cell line (10 J/cm^2 at 630 nm) is 3.36; in the experiment on Hut102 ATL cell line (30 J/cm^2 at 630 nm) it was 3.56; with Hut102 ATL cell line (100 J/cm^2 at 630 nm), 3.76; with C8166 ATL cell line (10 J/cm^2 at 630 nm), 3.95; in the experiment on C8166 ATL cell line (30 J/cm^2 at 630 nm) it was 4.06; with C8166 ATL cell line (100 J/cm^2 at 630 nm), 4.11. Moreover, the pEC50 is 3.57 with TL-Om1 ATL cell line (10 J/cm^2 at 630 nm); 3.85 with TL-Om1 ATL cell line (30 J/cm^2 at 630 nm); 4.04 in the experiment on TL-Om1 ATL cell line (100 J/cm^2 at 630 nm); 3.95 with ATN-1 ATL cell line (10 J/cm^2 at 630 nm); 4.06 in the experiment with ATN-1 ATL cell line (30 J/cm^2 at 630 nm); 4.08 with ATN-1 ATL cell line (100 J/cm^2 at 630 nm). Further, the pEC50 in the experiment on MT-1 ATL cell line (10 J/cm^2 at 630 nm) is less than 3.30; in the experiment with MT-1 ATL cell line (30 J/cm^2 at 630 nm), 3.69; with MT-1 ATL cell line (100 J/cm^2 at 630 nm), 3.94. Further, in the experiment on Hut102 ATL cell line (mogamulizumab-resistant Hut102 versus the other sensitive cell lines (ATN-1, TL-Om1, MT-1)), the “cell killing effect of PDT using 5-ALA relative to sensitive cell lines” value is “at least comparable”.

The values are drawn from patent publication US20220175925A1, “PHARMACEUTICAL COMPOSITION FOR PREVENTING OR TREATING TREATMENT-RESISTANT CANCER” (JIMRO CO., LTD., priority 2019, published 2022).
